From the supplement of paper PMC8612539
In brackets after ≈: the same amount, converted by molar mass.

System: Pasteurella multocida
Assay: minimum inhibitory concentration (MIC)
Method: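 Broth microdilution MIC (Sensititre BOPO7F bovine plate, CLSI methods) of 19 antimicrobials against field isolates of P. multocida, M. haemolytica, H. somni (deep nasopharyngeal swabs) and E. coli, Enterococcus spp. (rectal swabs) from weaned dairy heifers. Incubation 16-24 h at 35 C. MIC is the lowest concentration preventing visible growth. Values with <= or > lie at the tested range limits. Trimethoprim-sulfamethoxazole is given as the trimethoprim component of a 1:19 mixture.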

C=C[C@]1(C)C[C@@H](OC(=O)CSCCN(CC)CC)[C@]2(C)[C@H](C)CC[C@]3(CCC(=O)[C@H]32)[C@@H](C)[C@@H]1O [Tiamulin] was tested, and the minimum inhibitory concentration (isolate (source animal id): 10) was 16 µg/mL (≈ 32.4 µM), the minimum inhibitory concentration (isolate (source animal id): 11) was 16 µg/mL (≈ 32.4 µM) and the minimum inhibitory concentration (isolate (source animal id): 12) was 16 µg/mL (≈ 32.4 µM). It also gave a minimum inhibitory concentration (isolate (source animal id): 19) of 16 µg/mL (≈ 32.4 µM), a minimum inhibitory concentration (isolate (source animal id): 23) of 16 µg/mL (≈ 32.4 µM) and a minimum inhibitory concentration (isolate (source animal id): 26) of 32 µg/mL (≈ 64.8 µM). The minimum inhibitory concentration (isolate (source animal id): 98) was 32 µg/mL (≈ 64.8 µM), the minimum inhibitory concentration (isolate (source animal id): 104) was 32 µg/mL (≈ 64.8 µM) and the minimum inhibitory concentration (isolate (source animal id): 115) was 32 µg/mL (≈ 64.8 µM). For the same molecule, the minimum inhibitory concentration (isolate (source animal id): 117) was 32 µg/mL (≈ 64.8 µM), the minimum inhibitory concentration (isolate (source animal id): 118) was 32 µg/mL (≈ 64.8 µM) and the minimum inhibitory concentration (isolate (source animal id): 121) was 32 µg/mL (≈ 64.8 µM). The minimum inhibitory concentration (isolate (source animal id): 124) was 32 µg/mL (≈ 64.8 µM), the minimum inhibitory concentration (isolate (source animal id): 125) was 32 µg/mL (≈ 64.8 µM) and the minimum inhibitory concentration (isolate (source animal id): 128) was 32 µg/mL (≈ 64.8 µM). For the same molecule, the minimum inhibitory concentration (isolate (source animal id): 131) was 32 µg/mL (≈ 64.8 µM), the minimum inhibitory concentration (isolate (source animal id): 135) was 16 µg/mL (≈ 32.4 µM) and the minimum inhibitory concentration (isolate (source animal id): 136) was 32 µg/mL (≈ 64.8 µM). For the same molecule, the minimum inhibitory concentration (isolate (source animal id): 140) was 32 µg/mL (≈ 64.8 µM), the minimum inhibitory concentration (isolate (source animal id): 144) was 32 µg/mL (≈ 64.8 µM) and the minimum inhibitory concentration (isolate (source animal id): 146) was 32 µg/mL (≈ 64.8 µM). For the same molecule, the minimum inhibitory concentration (isolate (source animal id): 150) was 32 µg/mL (≈ 64.8 µM), the minimum inhibitory concentration (isolate (source animal id): 151) was 32 µg/mL (≈ 64.8 µM) and the minimum inhibitory concentration (isolate (source animal id): 153) was 32 µg/mL (≈ 64.8 µM). It also gave a minimum inhibitory concentration (isolate (source animal id): 155) of 32 µg/mL (≈ 64.8 µM), a minimum inhibitory concentration (isolate (source animal id): 157) of 16 µg/mL (≈ 32.4 µM) and a minimum inhibitory concentration (isolate (source animal id): 160) of 32 µg/mL (≈ 64.8 µM). The minimum inhibitory concentration (isolate (source animal id): 164) was 32 µg/mL (≈ 64.8 µM), the minimum inhibitory concentration (isolate (source animal id): 165) was 32 µg/mL (≈ 64.8 µM) and the minimum inhibitory concentration (isolate (source animal id): 167) was 32 µg/mL (≈ 64.8 µM). It also gave a minimum inhibitory concentration (isolate (source animal id): 168) of 32 µg/mL (≈ 64.8 µM), a minimum inhibitory concentration (isolate (source animal id): 169) of 16 µg/mL (≈ 32.4 µM) and a minimum inhibitory concentration (isolate (source animal id): 170) of 32 µg/mL (≈ 64.8 µM). The minimum inhibitory concentration (isolate (source animal id): 171) was 32 µg/mL (≈ 64.8 µM), the minimum inhibitory concentration (isolate (source animal id): 172) was 32 µg/mL (≈ 64.8 µM) and the minimum inhibitory concentration (isolate (source animal id): 173) was 32 µg/mL (≈ 64.8 µM). The minimum inhibitory concentration (isolate (source animal id): 174) was 16 µg/mL (≈ 32.4 µM), the minimum inhibitory concentration (isolate (source animal id): 175) was 32 µg/mL (≈ 64.8 µM) and the minimum inhibitory concentration (isolate (source animal id): 176) was 16 µg/mL (≈ 32.4 µM). For the same molecule, the minimum inhibitory concentration (isolate (source animal id): 177) was 32 µg/mL (≈ 64.8 µM), the minimum inhibitory concentration (isolate (source animal id): 178) was 32 µg/mL (≈ 64.8 µM) and the minimum inhibitory concentration (isolate (source animal id): 179) was 32 µg/mL (≈ 64.8 µM). For the same molecule, the minimum inhibitory concentration (isolate (source animal id): 182) was 32 µg/mL (≈ 64.8 µM), the minimum inhibitory concentration (isolate (source animal id): 192) was 32 µg/mL (≈ 64.8 µM) and the minimum inhibitory concentration (isolate (source animal id): 193) was 32 µg/mL (≈ 64.8 µM). The minimum inhibitory concentration (isolate (source animal id): 195) was 32 µg/mL (≈ 64.8 µM), the minimum inhibitory concentration (isolate (source animal id): 196) was 32 µg/mL (≈ 64.8 µM) and the minimum inhibitory concentration (isolate (source animal id): 197) was 32 µg/mL (≈ 64.8 µM). For the same molecule, the minimum inhibitory concentration (isolate (source animal id): 198) was 32 µg/mL (≈ 64.8 µM), the minimum inhibitory concentration (isolate (source animal id): 199) was 32 µg/mL (≈ 64.8 µM) and the minimum inhibitory concentration (isolate (source animal id): 200) was 32 µg/mL (≈ 64.8 µM). For the same molecule, the minimum inhibitory concentration (isolate (source animal id): 201) was 32 µg/mL (≈ 64.8 µM), the minimum inhibitory concentration (isolate (source animal id): 203) was 16 µg/mL (≈ 32.4 µM) and the minimum inhibitory concentration (isolate (source animal id): 204) was 32 µg/mL (≈ 64.8 µM). It also gave a minimum inhibitory concentration (isolate (source animal id): 205) of 32 µg/mL (≈ 64.8 µM), a minimum inhibitory concentration (isolate (source animal id): 206) of 32 µg/mL (≈ 64.8 µM) and a minimum inhibitory concentration (isolate (source animal id): 207) of 32 µg/mL (≈ 64.8 µM). For the same molecule, the minimum inhibitory concentration (isolate (source animal id): 208) was 16 µg/mL (≈ 32.4 µM), the minimum inhibitory concentration (isolate (source animal id): 209) was 16 µg/mL (≈ 32.4 µM) and the minimum inhibitory concentration (isolate (source animal id): 210) was 32 µg/mL (≈ 64.8 µM). The minimum inhibitory concentration (isolate (source animal id): 213) was 16 µg/mL (≈ 32.4 µM), the minimum inhibitory concentration (isolate (source animal id): 216) was 32 µg/mL (≈ 64.8 µM) and the minimum inhibitory concentration (isolate (source animal id): 223) was 16 µg/mL (≈ 32.4 µM). It also gave a minimum inhibitory concentration (isolate (source animal id): 227) of 16 µg/mL (≈ 32.4 µM), a minimum inhibitory concentration (isolate (source animal id): 229) of 32 µg/mL (≈ 64.8 µM) and a minimum inhibitory concentration (isolate (source animal id): 233) greater than 32 µg/mL. It also gave a minimum inhibitory concentration (isolate (source animal id): 234) of 32 µg/mL (≈ 64.8 µM), a minimum inhibitory concentration (isolate (source animal id): 237) of 32 µg/mL (≈ 64.8 µM) and a minimum inhibitory concentration (isolate (source animal id): 241) of 32 µg/mL (≈ 64.8 µM). It also gave a minimum inhibitory concentration (isolate (source animal id): 245) of 32 µg/mL (≈ 64.8 µM), a minimum inhibitory concentration (isolate (source animal id): 247) of 32 µg/mL (≈ 64.8 µM) and a minimum inhibitory concentration (isolate (source animal id): 250) of 32 µg/mL (≈ 64.8 µM). For the same molecule, the minimum inhibitory concentration (isolate (source animal id): 254) was 32 µg/mL (≈ 64.8 µM), the minimum inhibitory concentration (isolate (source animal id): 255) was 16 µg/mL (≈ 32.4 µM) and the minimum inhibitory concentration (isolate (source animal id): 258) was 32 µg/mL (≈ 64.8 µM). The minimum inhibitory concentration (isolate (source animal id): 261) was 32 µg/mL (≈ 64.8 µM), the minimum inhibitory concentration (isolate (source animal id): 262) was 32 µg/mL (≈ 64.8 µM) and the minimum inhibitory concentration (isolate (source animal id): 269) was 32 µg/mL (≈ 64.8 µM). It also gave a minimum inhibitory concentration (isolate (source animal id): 270) of 32 µg/mL (≈ 64.8 µM), a minimum inhibitory concentration (isolate (source animal id): 274) of 32 µg/mL (≈ 64.8 µM) and a minimum inhibitory concentration (isolate (source animal id): 275) of 32 µg/mL (≈ 64.8 µM). The minimum inhibitory concentration (isolate (source animal id): 276) was 32 µg/mL (≈ 64.8 µM), the minimum inhibitory concentration (isolate (source animal id): 277) was 32 µg/mL (≈ 64.8 µM) and the minimum inhibitory concentration (isolate (source animal id): 278) was 32 µg/mL (≈ 64.8 µM). The minimum inhibitory concentration (isolate (source animal id): 279) was 32 µg/mL (≈ 64.8 µM), the minimum inhibitory concentration (isolate (source animal id): 280) was 32 µg/mL (≈ 64.8 µM) and the minimum inhibitory concentration (isolate (source animal id): 284) was 32 µg/mL (≈ 64.8 µM). For the same molecule, the minimum inhibitory concentration (isolate (source animal id): 285) was 32 µg/mL (≈ 64.8 µM), the minimum inhibitory concentration (isolate (source animal id): 287) was 32 µg/mL (≈ 64.8 µM) and the minimum inhibitory concentration (isolate (source animal id): 290) was 32 µg/mL (≈ 64.8 µM). It also gave a minimum inhibitory concentration (isolate (source animal id): 294) of 32 µg/mL (≈ 64.8 µM), a minimum inhibitory concentration (isolate (source animal id): 295) greater than 32 µg/mL and a minimum inhibitory concentration (isolate (source animal id): 296) of 32 µg/mL (≈ 64.8 µM). It also gave a minimum inhibitory concentration (isolate (source animal id): 307) of 32 µg/mL (≈ 64.8 µM), a minimum inhibitory concentration (isolate (source animal id): 310) greater than 32 µg/mL and a minimum inhibitory concentration (isolate (source animal id): 311) greater than 32 µg/mL. It also gave a minimum inhibitory concentration (isolate (source animal id): 312) of 32 µg/mL (≈ 64.8 µM), a minimum inhibitory concentration (isolate (source animal id): 313) of 32 µg/mL (≈ 64.8 µM) and a minimum inhibitory concentration (isolate (source animal id): 315) of 32 µg/mL (≈ 64.8 µM). For the same molecule, the minimum inhibitory concentration (isolate (source animal id): 316) was 32 µg/mL (≈ 64.8 µM).
